# Key:
# Format in all cases: cell-based
# [1] = test system: Cupriavidus metallidurans CH34; assay: Minimum inhibitory concentration (MIC) of heavy metals in agar plates, strain CH34; conditions: Tris mineral salts medium, increasing metal concentrations
# Text: (§1) The increase of the heavy metal resistance of the novel strain Cupriavidus metallidurans MSR33 was confirmed measuring minimum inhibitory concentration (MIC) of heavy metals in agar plates containing Tris mineral salts medium supplemented with increasing heavy metal concentrations and the organomercurial compound methylmercury.
# [2] = test system: Cupriavidus metallidurans MSR33; assay: Minimum inhibitory concentration (MIC) of heavy metals in agar plates, strain MSR33; conditions: for Improved resistance (fold): MIC of MSR33 relative to CH34; for MIC, strain MSR33: agar plates, Tris mineral salts medium, increasing metal concentrations
# Text: as §1
# [3] = test system: Cupriavidus metallidurans MSR33; assay: Growth in Tris mineral salts medium with Hg(II) added at mid-exponential phase, strain MSR33; conditions: Hg(II) 8 μg/g added at mid-exponential phase, succinate
# Protocol: (§2) To characterize the novel mercury resistance capabilities, the recombinant strain Cupriavidus metallidurans MSR33 was grown in minimal medium supplemented with succinate as sole carbon source and energy and in the presence or absence of mercury. Cupriavidus metallidurans strain CH34 was also grown in these conditions.
# (§3) The growth of both strains is similar in absence of Hg (II).
# [4] = test system: Cupriavidus metallidurans strain CH34; assay: Growth in Tris mineral salts medium with Hg(II) added at exponential phase, strain CH34; conditions: Hg^2+ 8 μg/g added at exponential phase, succinate
# Protocol: as §2, §3
SMILES,"MIC, strain CH34 ([1]; parental strain CH34)",Improved resistance (fold) [2],"MIC, strain MSR33 [2]",effect on growth of strain MSR33 [3],effect on growth of strain CH34 [4],"MIC, strain CH34 ([1]; parental strain CH34, listed as CH3Hg^+)"
[Cd+2] [Cd^2+],100 µg/g,1.6 fold,160 µg/g,–,–,–
[Cu+2] [Cu^2+],240 µg/g,–,240 µg/g,–,–,–
[Hg+2] [Hg^2+],10 µg/g,2.4 fold,24 µg/g,do not affect the growth,no further growth,–
"[CH3][Hg][Cl] [MeHg^+, methylmercury]",<1 µg/g,>18.0 fold,18 µg/g,–,–,sensitive
